# Results: the supplement of paper PMC12513837
# ± gives the standard deviation of the averaged measurements.
# Compound: CC(=O)N1CCc2c(c(N3CCCc4cc(-c5cnn(C)c5)c(C(F)F)cc43)nn2C2CCC(CN3CCN(c4ccc5c(c4)C(=O)N(C4CCC(=O)NC4=O)C5=O)CC3)CC2)C1 [CBPD-409]
# Assay: AUC of viability dose-response curve (relative to vehicle, 8 doses up to 10 µM) (fraction); higher = less sensitive (more viable); extreme values may be limits of the assay
# Protocol: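 PRISM multiplexed pooled barcoded cell line viability screen at the Broad Institute, 887 cancer cell lines treated with CBPD-409 (p300/CBP PROTAC degrader) at 8 concentrations in threefold dilution, top dose 10 µM. The read-out is the area under the dose-response curve of relative viability versus vehicle (n=3). AUC < 0.3 is called strongly sensitive and AUC > 0.8 resistant.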
row,Test System,AUC of viability dose-response curve
1,SCLC21H_LUNG,1
2,HEC116_ENDOMETRIUM,0.78
3,VAL_HAEMATOPOIETIC_AND_LYMPHOID_TISSUE,0.56
4,NCIH441_LUNG,0.558
5,LS1034_LARGE_INTESTINE,0.295
6,DOTC24510_CERVIX,0.344
7,SKHEP1_LIVER,1
8,HPBALL_HAEMATOPOIETIC_AND_LYMPHOID_TISSUE,0.878
9,ICC8_BILIARY_TRACT,1
10,HS944T_SKIN,1
11,SNU449_LIVER,0.947
12,C80_LARGE_INTESTINE,0.689
13,RERFLCAD1_LUNG,1
14,KYSE30_OESOPHAGUS,0.619
15,MFE280_ENDOMETRIUM,0.581
16,EB1_HAEMATOPOIETIC_AND_LYMPHOID_TISSUE,1
17,MKN74_STOMACH,0.493
18,HCC1419_BREAST,0.122
19,UACC62_SKIN,0.901
20,MMNK1_BILIARY_TRACT,0.479
21,253JBV_URINARY_TRACT,1
22,HCC1806_BREAST,1
23,SKN_ENDOMETRIUM,0.778
24,SNU1196_BILIARY_TRACT,1
25,CW9019_SOFT_TISSUE,0.735

row,Test System,AUC of viability dose-response curve
1,647V_URINARY_TRACT,0.394
2,SKLU1_LUNG,0.753
3,PATU8988S_PANCREAS,0.253
4,OCUG1_BILIARY_TRACT,1
5,A1207_CENTRAL_NERVOUS_SYSTEM,1
6,CAL62_THYROID,0.321
7,NOMO1_HAEMATOPOIETIC_AND_LYMPHOID_TISSUE,0.279
8,KELLY_AUTONOMIC_GANGLIA,0.234 ± 0.054
9,NCIH1693_LUNG,0.949
10,HGC27_STOMACH,0.316
11,KE37_HAEMATOPOIETIC_AND_LYMPHOID_TISSUE,0.925
12,CJM_SKIN,0.415
13,T3M5_THYROID,0.776
14,RKN_SOFT_TISSUE,1
15,TT2609C02_THYROID,0.775
16,JHH1_LIVER,0.282
17,CAKI1_KIDNEY,0.644
18,HT144_SKIN,1
19,TE11_OESOPHAGUS,0.986
20,VMRCRCZ_KIDNEY,0.584
21,ES2_OVARY,0.986
22,TC32_BONE,0.859
23,SHMAC5_PROSTATE,1
24,COV362_OVARY,0.887
25,U118MG_CENTRAL_NERVOUS_SYSTEM,0.983

row,Test System,AUC of viability dose-response curve
1,TTC709_SOFT_TISSUE,0.23
2,SCC9_UPPER_AERODIGESTIVE_TRACT,0.687
3,UMRC7_KIDNEY,0.773
4,G402_SOFT_TISSUE,0.514 ± 0.18
5,THP1_HAEMATOPOIETIC_AND_LYMPHOID_TISSUE,1
6,TC205_BONE,0.543
7,RHJT_SOFT_TISSUE,0.512
8,OVK18_OVARY,0.365
9,KMRC3_KIDNEY,0.906
10,HT1080_SOFT_TISSUE,1
11,RL952_ENDOMETRIUM,0.996
12,A101D_SKIN,1
13,TT_THYROID,0.15
14,SNU2372_BREAST,1
15,NCIH838_LUNG,0.893
16,OCILY3_HAEMATOPOIETIC_AND_LYMPHOID_TISSUE,0.617
17,TM87_SOFT_TISSUE,0.367 ± 0.19
18,SKNO1_HAEMATOPOIETIC_AND_LYMPHOID_TISSUE,0.247
19,MALME3M_SKIN,0.272
20,NCIH2444_LUNG,1
21,RMUGS_OVARY,0.866
22,SKGT4_OESOPHAGUS,0.575
23,MDAMB361_BREAST,0.368
24,NCIH1092_LUNG,1
25,UMUC13_URINARY_TRACT,0.199

row,Test System,AUC of viability dose-response curve
1,UBLC1_URINARY_TRACT,0.437
2,ISTMES2_PLEURA,0.579
3,SNU1076_UPPER_AERODIGESTIVE_TRACT,0.845
4,CFPAC1_PANCREAS,1
5,EM2_HAEMATOPOIETIC_AND_LYMPHOID_TISSUE,0.613
6,KON_UPPER_AERODIGESTIVE_TRACT,0.7
7,22RV1_PROSTATE,0.189
8,921_UVEA,0.336
9,HCC1428_BREAST,0.667
10,SNU245_BILIARY_TRACT,0.719
11,TFK1_BILIARY_TRACT,0.717
12,HDMB03_CENTRAL_NERVOUS_SYSTEM,0.453
13,SKPNDW_BONE,1
14,HEC1B_ENDOMETRIUM,0.998
15,BICR18_UPPER_AERODIGESTIVE_TRACT,1
16,KLE_ENDOMETRIUM,0.91
17,NCIH2171_LUNG,1
18,5637_URINARY_TRACT,1
19,CHLA15_AUTONOMIC_GANGLIA,0.551
20,MDAMB175VII_BREAST,0.999
21,OCIP5X_OVARY,1
22,T47D_BREAST,0.593
23,IALM_LUNG,0.311
24,RI1_HAEMATOPOIETIC_AND_LYMPHOID_TISSUE,0.424
25,TE8_OESOPHAGUS,0.646

row,Test System,AUC of viability dose-response curve
1,SNU216_STOMACH,1
2,HPAC_PANCREAS,1
3,HCT116_LARGE_INTESTINE,0.998
4,OCIAML2_HAEMATOPOIETIC_AND_LYMPHOID_TISSUE,0.551
5,YSCCC_BILIARY_TRACT,0.853
6,697_HAEMATOPOIETIC_AND_LYMPHOID_TISSUE,0.293
7,EMTOKA_ENDOMETRIUM,0.825
8,OAW42_OVARY,0.814
9,KNS60_CENTRAL_NERVOUS_SYSTEM,0.779
10,SNU761_LIVER,0.855
11,NCIH2009_LUNG,0.596
12,HUH7_LIVER,0.796
13,JHH5_LIVER,0.614
14,SW756_CERVIX,0.437
15,RERFLCMS_LUNG,0.837
16,HCC44_LUNG,1
17,DMS53_LUNG,0.475
18,NCIH226_LUNG,0.519
19,JHOC5_OVARY,1
20,RKO_LARGE_INTESTINE,0.854
21,PL21_HAEMATOPOIETIC_AND_LYMPHOID_TISSUE,0.499
22,EFO21_OVARY,0.764
23,PEDS005TSUSP_KIDNEY,0.309
24,NCIH2170_LUNG,1
25,NCIH647_LUNG,1

row,Test System,AUC of viability dose-response curve
1,NCIH520_LUNG,0.861
2,SW1783_CENTRAL_NERVOUS_SYSTEM,0.884
3,GSU_STOMACH,0.326
4,JEKO1_HAEMATOPOIETIC_AND_LYMPHOID_TISSUE,1
5,U251MG_CENTRAL_NERVOUS_SYSTEM,0.873
6,RL_HAEMATOPOIETIC_AND_LYMPHOID_TISSUE,0.651
7,NP5_CENTRAL_NERVOUS_SYSTEM,0.488
8,HCC56_LARGE_INTESTINE,0.809
9,SUM159PT_BREAST,0.732
10,MOLT13_HAEMATOPOIETIC_AND_LYMPHOID_TISSUE,1
11,PANC0813_PANCREAS,0.953
12,NUGC4_STOMACH,0.344
13,RERFLCKJ_LUNG,1
14,KKU055_BILIARY_TRACT,0.915
15,COLO792_SKIN,0.804
16,SKOV3_OVARY,1
17,WM793_SKIN,0.949
18,HUPT3_PANCREAS,0.687
19,SNU899_UPPER_AERODIGESTIVE_TRACT,0.668
20,NCIH28_PLEURA,1
21,MESSA_SOFT_TISSUE,0.126
22,NCIH2052_PLEURA,0.444
